Laboratory results published in PMC5554167, “Intestinal transepithelial permeability of oxytocin into the blood is dependent on the receptor for advanced glycation end products in mice” (Scientific Reports, 2017).

Columns and labels:
[1] = cited from earlier work
Excerpt: Breast milk contains a dynamic supply of hormones, including oxytocin (OT[4], [5], [10]–[15]), which is concentrated from the mother’s general circulation. […] OT in early life plays a role in the development of the social brain and in establishing social behaviour in adults, [20]–[23]. Therefore, breast milk not only nourishes beneficial microbes and provides immunity but also appears to improve well-being by improving human communication, [24]–[28]. Altho ...

[2] = Plasma OT after suckling of dam's milk in pups, estimate of availability; format: in vivo, mice
Protocol: […] No clear difference in the OT level was observed between male and female pups.
An estimation of bioavailability was performed in adult mice. Fifty ng/mL of OT was detected after oral delivery of 10 μg of OT. Young adults weigh approximately 30 g and have 2.3 mL blood, so approximately 1% of oral OT can be absorbed. We have previously identified OT in the mammary tissues of mouse dams and in the milk curd inside the oesophagi of pups[13]. To determine the OT concentrations in milk, we needed to collect milk from the mothers. One common method is to collect milk after stimulating secretion with external OT. Because such milk contains external OT, we were unable to calculate the OT concentrations in milk. However, we carried out a new collection method without exogenous OT stimulation. We obtained samples at 5 days after parturition, and the concentration of milk OT was 1,200 pg/mL. If we estimate a pup’s milk intake to be 100 μL, the pups will ingest 120 pg of OT. […] According to Tanaka et al.[11], when [^3H]OT is administered to lactating rats, the radioactivity of intact OT in the neonatal content is 4.4% of the counts obtained for the maternal plasma. […]
(§1) OT or AVP immunoreactivity levels were quantified by using OT and AVP enzyme immunoassay (EIA) kits (Enzo Life Sciences, NY, USA), respectively. […]

[3] = Plasma OT after intestinal delivery of OT in pups (EIA); format: in vivo, mice
Protocol: To confirm that the above increase after oral administration was primarily owing to permeability from the intestine, 5 μL of 100 μM OT (0.5 μg/pup) was applied directly into the small intestine, bypassing the mouth, buccal mucosal membrane, and/or upper parts of the digestive tract, including the oesophagus and stomach. The plasma OT in blood samples collected from the neck (Fig. 2a, inset) reached a peak at 10 min and decreased at 60 min and 120 min after intestinal application (Supplementary Fig. 1). […] The plasma OT level was higher at PND1 and PND3 than at PND7 in the group injected with OT (***P < 0.001 and **P < 0.01; Fig. 2a).
OT (100 μM) was injected through needles (28 G) into the proximal part (1~2 cm from the pylorus) of the small intestine of pups (5 μL) and adults (100 μL) under ketamine anaesthesia ([…] intraperitoneally), after the abdominal skin was cut to expose the small intestine in the abdominal cavity. The intestine was returned to the cavity or covered with paper and rinsed with saline. For the isolated pup intestines, 30 μL of 10 μM OT was injected at the distal end.
(§2) Approximately 30 μL of blood was collected from the facial vein of neonates after quick cold anesthesia on ice (Fig. 1a; ref. [67], [68]). […]
as §1

[4] = Plasma OT after oral delivery of OT in adult mice (EIA); format: in vivo
Protocol: In adult male mice (8 weeks old), when oral OT was administered at the same dose used for neonates (1 μg/mouse), as in Fig. 1b, no increase in the plasma OT concentration was observed (data not shown). To examine whether permeability exists in the adult intestine after barrier formation, a 10-fold higher volume of OT (100 μM × 100 μL) was used for oral delivery (10 μg/mouse). Blood samples were collected from anesthetized mice using a tail snip procedure, and OT concentrations were measured (Fig. 5a, inset).
Milk-borne OT was fed by mothers for 20 min after 20 min of starvation. A synthetic OT solution (100 µM; 10 μL for pups and 100 μL for adults) was administered orally. The same dose of [ILe^13C, ^15N]OT was delivered orally to pups. For oral administration, pups or adult mice were held by hand, and the OT solution was dispensed into their mouths using polypropylene tips.
as §2, §1

[5] = Plasma OT after oral delivery of OT in pups (EIA); format: in vivo, mice; details: both sexes, C57BL/6N, 1 μg/mouse, wild-type pups PND6, oral 1 μg of OT/mouse, n = 5–8, read-out: Time of peak plasma OT concentration (converted)
Protocol: The possibility of transport during the suckling period of development (from PND1 to PND15) was confirmed by comparing plasma OT levels at 10 min after oral delivery with 10 μL of 100 μM synthetic OT solution (1 μg/pup) or the same volume of phosphate buffered saline (PBS) to male and female pups after fasting for 30 min. […] The plasma OT concentrations after oral OT delivery remained at higher levels at PND3–5 than in the saline controls (two-way analysis of variance (ANOVA), F 8.90 = 3.32, P < 0.002: Bonferroni’s post hoc tests for differences between OT and PNDs (^a P < 0.001, ^b P < 0.01, and ^c P < 0.05 from the value at PND8) and between OT and PBS (^d P < 0.01). The OT concentration dropped suddenly after PND6, although it remained higher than that in the saline control group. At PND8 and PND15, no concentration difference in plasma OT levels was observed between pups orally administered OT vs. those administered PBS.
The time profile of the plasma OT concentration after oral administration of OT peaked at 10 min in pups at PND6 (n = 5–8, one-way ANOVA, F 5,37 = 3.302, P < 0.02 from the control value; Fig. 1c). The plasma OT level depended on the oral OT dose in pups at PND6 (one-way ANOVA, F 3,24 = 20.35, P < 0.0001; Fig. 1d). […]
as §1

[6] = much longer in mucosal tissues; cited from earlier work
Excerpt: OT absorption through the intestine was more difficult to detect in adults. The reasons for this difference with age may be owing to the progressive digestion of OT and strengthening of the gastrointestinal tract barrier. Similarly, a gradual decline in plasma OT concentrations during development appears to be caused by establishment of the intestinal barrier and intestinal digestion (Ref. [49] and Fig. 3d). Digestion is at a low level at birth and increases progressively during the first week in mice and humans. However, digestion of OT takes more than 30 min and is much longer in mucosal ...

[7] = [3H]OT administered to lactating rats; cited from earlier work

| Compound | Stability in gastric acid [1] | Availability of milk OT ([2]; PND5 pups, milk OT 1,200 pg/mL, milk intake 100 μL (120 pg), blood volume 200 μL, increase 20 pg) | Increase of plasma OT after suckling ([2]; pups fed with dam's milk) | Tmax ([3]; both sexes, C57BL/6N, mouse, plasma, pups (PND5, Supplementary Fig. 1), 0.5 μg/pup into the small intestine, read-out: Time of peak plasma OT concentration (converted)) | Decrease of plasma OT concentration from PND1 to PND7 ([3]; wild-type pups, 10 min after intestinal OT injection (0.5 μg/pup)) | Change of plasma OT concentration ([4]; adult male mice (8 weeks old), oral 1 μg/mouse, data not shown) | Oral OT absorbed (estimated bioavailability) ([4]; adult mice, oral 10 μg of OT, assumes 30 g weight and 2.3 mL blood) | Tmax [5] | Time for digestion of OT [6] | Radioactivity of intact OT in the neonatal content, % of the counts of maternal plasma [7] |
| --- | --- | --- | --- | --- | --- | --- | --- | --- | --- | --- |
| CC[C@H](C)[C@@H]1NC(=O)[C@H](Cc2ccc(O)cc2)NC(=O)[C@@H](N)CSSC[C@@H](C(=O)N2CCC[C@H]2C(=O)N[C@@H](CC(C)C)C(=O)NCC(N)=O)NC(=O)[C@H](CC(N)=O)NC(=O)[C@H](CCC(N)=O)NC1=O [OT, oxytocin] | relatively stable | 16.6% | approximately 100 pg/mL | 10 min | approximately 4.6 fold | no increase | approximately 1% | 10 min | more than 30 min |  |
| [^3H]OT: tritium-labelled oxytocin administered to lactating rats in a cited study |  |  |  |  |  |  |  |  |  | 4.4% |
